According to patent US7629150B2, “Transformed cell harboring DNA or RNA encoding sugar chain synthesizing agent having β1,3-N-acetylglucosaminyltransferase activity” (Kyowa Hakko Kirin Co., Ltd., priority 2000, dated 2009):

Assays:
Type in all cases: biochemical
G6sec2 [1] = biological target: T1, G6sec2 (Homo sapiens, UniProt Q9BYG0); experiment: β1,3-N-acetylglucosaminyltransferase activity using pyridylaminated oligosaccharides as substrates; details: pyridylaminated oligosaccharides 50 μmol/l, 37° C., 14.5 hours, LNnT defined as 100%
T1 construct: made in house; host or cells: Sf21 insect cells infected with pVL1393-F2G6sec2-derived recombinant baculovirus
T1 sequence (Q9BYG0 39-378): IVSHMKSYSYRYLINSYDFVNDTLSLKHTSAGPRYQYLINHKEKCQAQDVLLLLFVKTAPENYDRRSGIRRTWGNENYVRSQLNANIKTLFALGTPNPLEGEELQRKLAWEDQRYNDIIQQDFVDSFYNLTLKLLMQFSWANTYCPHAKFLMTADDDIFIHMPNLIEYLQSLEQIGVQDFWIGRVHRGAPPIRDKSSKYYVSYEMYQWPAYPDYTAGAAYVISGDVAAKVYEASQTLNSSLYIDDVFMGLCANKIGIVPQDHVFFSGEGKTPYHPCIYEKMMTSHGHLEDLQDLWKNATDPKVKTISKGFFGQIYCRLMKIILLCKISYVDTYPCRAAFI
Procedure: After carrying out the reaction at 37° C. for 14.5 hours in 30 μl of an assay solution [150 mmol/l sodium cacodylate (pH 7.2), 50 mmol/l UDP-GlcNAc (manufactured by SIGMA), 0.4% Triton CF-54, 10 mmol/l MnCl2, 50 μmol/l pyridylaminated sugar chain substrate, a purified enzyme solution (G6sec2)], the product was detected by HPLC. The purified enzyme (G6sec2) was obtained according to the method shown in Example 8(6). The purified enzyme (280 μl) was prepared from 30 ml of a culture supernatant of Sf21 infected with the recombinant virus derived from pVL1393-F2G6sec2, and the assay was carried out using 5 μl thereof. As substrates, LnNT, lacto-N-tetraose (Galβ1-3GlcNAcβ1-3Galβ1-4Glc (hereinafter referred to as “LNT”), lacto-N-fucopentaose II (Galβ1-3(Fucα1-4)GlcNAcβ1-3Galβ1-4Glc; hereinafter referred to as “LNFP-II”), lacto-N-fucopentaose III (Galβ1-4(Fucα1-3)GlcNAcβ1-3Galβ1-4Glc; hereinafter referred to as “LNFP-III”), lacto-N-fucopentaose V (Galβ1-3GlcNAcβ1-3Galβ1-4(Fucα1-3)Glc; hereinafter referred to as “LNFP-V”), and lacto-N-difucohexaose II (Galβ1-3(Fucα1-4)GlcNAcβ1-3Galβ1-4(Fucα1-3)Glc; hereinafter referred to as “LNDFH-II”) (all manufactured by Oxford Glycosystems) were fluorescently-labeled with aminopyridine and used. The substrates were fluorescently-labeled according to a conventional method [Agric. Biol. Chem., 54, 2169 (1990)].
After carrying out the reaction on each substrate using an assay solution containing UDP-GlcNAc (saccharide donor) and an assay solution containing no donor and subsequently analyzing by HPLC, peaks appeared only in the assay solution containing UDP-GlcNAc was defined as products.
The assay solution after completion of the reaction was treated at 100° C. for 5 minutes and then centrifuged at 10,000×g for 5 minutes to obtain a supernatant, and a part thereof (5 μl) was subjected to HPLC.
The HPLC was carried out using TSK-gel ODS-80Ts Column (4.6×300 mm; manufactured by TOSOH) and 0.02 mol/l ammonium acetate buffer (pH 4.0) as the eluant at an elution temperature of 50° C. and a flow rate of 0.5 ml/min.
Detection and determination of products were carried out using a fluorescence spectrophotometer FP-920 (manufactured by JASCO Corporation) (excitation wavelength: 320 nm, radiation wavelength: 400 nm).

G6sec2 [2] = biological target: T1, G6sec2; experiment: β1,3-N-acetylglucosaminyltransferase activity of purified FLAG peptide-fused G6 polypeptide, 2-aminobenzamide-labeled oligosaccharide substrates; details: 2-aminobenzamide-labeled oligosaccharides, LNnT defined as 100%; for Relative activity (%) Test 2 G6sec2: enzyme prepared again
Procedure: (§1) β1,3-N-Acetylglucosaminyltransferase activity of the FLAG peptide-fused G6 polypeptide secreted and produced in insect cells was measured by using the eluate prepared in Example 8(6). The method of Example 7 was used for the activity measurement.
(§2) As substrates, oligosaccharides [LNnT, Galβ1-4GlcNAcβ1-3Galβ1-4GlcNAc (hereinafter referred to as “2LN”), Galβ1-4GlcNAcβ1-3Galβ1-4GlcNAcβ1-3Galβ1-4GlcNAc (hereinafter referred to as “3LN”), Galβ1-4GlcNAcβ1-3Galβ1-4GlcNAcβ1-3Galβ1-4GlcNAcβ1-3Galβ1-4GlcNAc (hereinafter referred to as “4LN”), Galβ1-4GlcNAcβ1-3Galβ1-4GlcNAcβ-3Galβ1-4GlcNAcβ1-3Galβ1-4GlcNAcβ1-3Galβ1-4GlcNAc (hereinafter referred to as “5LN”), or Galβ1-4(SO3-6)GlcNAcβ1-3Galβ1-4(SO3-6)GlcNAc (hereinafter referred to as “L2L2”)] were labeled with 2-aminobenzamide and used. 2-Aminobenzamide-labeling of oligosaccharides was carried out using SIGMA 2AB glycan labeling kit (manufactured by Oxford Glycoscience) according to the manufacture's instructions of the kit. LNnT was purchased from Oxford Glycosystems. Other oligosaccharides were obtained from Seikagaku Corporation.
Specifically, the reaction was carried out at 37° C. for 16 hours in 20 μl of an assay solution [150 mmol/l sodium cacodylate (pH 7.2), 50 mmol/l UDP-GlcNAc (manufactured by SIGMA), 0.4% Triton CF-54, 10 mmol/l MnCl2, 5 μmol/12-aminobenzamide-labeled sugar chain substrate, the above purified enzyme solution], and then the product was detected by high performance liquid chromatography (HPLC, details will be described below). As the enzyme, an eluate (1.5 μl) prepared from a culture supernatant of Sf21 infected with the recombinant virus derived from pVL1393-F2G6sec1 or an eluate (1.4 μl) prepared from a culture supernatant of Sf21 infected with the recombinant virus derived from pVL1393-F2G6sec2, prepared in Example 8(6), was used.
(§3) The assay solution after completion of the reaction was treated at 100° C. for 5 minutes and then mixed with 50 μl of pure water for HPLC and centrifuged at 10,000×g for 5 minutes to obtain the supernatant. To a tube containing the assay solution, 50 μl of pure water for HPLC was added again, the tube was washed, and suparnatant was obtained by centrifugation at 10,000×g for 5 minutes and was combined with the first supernatant. Next, the supernatant was passed through Ultrafree-MC column (manufactured by Millipore) and a portion thereof (10 μl) was subjected to HPLC. The Ultrafree-MC column was used according to the method described in the manufacture's instructions attached thereto.
(§4) The HPLC was carried out using TSK-gel ODS-80Ts Column (4.6×300 mm; manufactured by TOSOH) as a column and 0.02 mol/l ammonium acetate buffer containing 7% methanol (pH 4.0) as an eluant at an elution temperature of 50° C. and a flow rate of 1 ml/min.
(§5) The product was detected using a fluorescence spectrophotometer FP-920 (manufactured by JASCO Corporation) (excitation wavelength: 330 nm, radiation wavelength: 420 nm).
Also, a purified enzyme (G6sec2) was again prepared using the method shown in Example 8(6), its substrate specificity was again examined, and the results are also shown in Table 1 (Test 2 in Table 1). The purified enzyme (280 μl) was prepared from 30 ml of a culture supernatant of Sf21 infected with the recombinant virus derived from pVL1393-F2G6sec2, and the assay was carried out using a 4 μl portion thereof. Relative activities when the activity measured using 2-aminobenzamide-labeled LNnT as the substrate is defined as 100% are shown in the table.

G6sec1 = biological target: T2, G6sec1 (Homo sapiens, UniProt Q9BYG0); experiment: as above; details: 2-aminobenzamide-labeled oligosaccharides; LNnT defined as 100%
T2 construct: made in house; host or cells: Sf21 insect cells infected with pVL1393-F2G6sec1-derived recombinant baculovirus
T2 sequence (Q9BYG0 36-378): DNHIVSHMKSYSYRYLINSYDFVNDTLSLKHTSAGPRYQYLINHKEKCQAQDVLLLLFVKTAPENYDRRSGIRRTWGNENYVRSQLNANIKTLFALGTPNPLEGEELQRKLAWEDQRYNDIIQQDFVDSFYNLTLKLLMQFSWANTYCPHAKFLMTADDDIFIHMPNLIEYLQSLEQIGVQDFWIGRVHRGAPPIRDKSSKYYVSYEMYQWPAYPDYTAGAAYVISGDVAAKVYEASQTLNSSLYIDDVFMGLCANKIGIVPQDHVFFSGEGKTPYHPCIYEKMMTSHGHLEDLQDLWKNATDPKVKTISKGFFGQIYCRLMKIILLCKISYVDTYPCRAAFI
Procedure: as §1, §2
Specifically, the reaction was carried out at 37° C. for 16 hours in 20 μl of an assay solution [150 mmol/l sodium cacodylate (pH 7.2), 50 mmol/l UDP-GlcNAc (manufactured by SIGMA), 0.4% Triton CF-54, 10 mmol/l MnCl2, 5 μmol/12-aminobenzamide-labeled sugar chain substrate, the above purified enzyme solution], and then the product was detected by high performance liquid chromatography (HPLC, details will be described below). […]
as §3, §4, §5

G6sec2 [3] = biological target: T1, G6sec2; experiment: β1,3-N-acetylglucosaminyltransferase activity using glycolipids as substrates (purified enzyme); details: glycolipid substrate; purified G6sec2
Procedure: Using glycolipids as the substrate, β1,3-N-acetylglucosaminyltransferase activity of the G6 polypeptide was measured according to known methods [FEBS, 462, 289 (1999), J. Biol. Chem., 269, 14730-14737 (1994), J. Biol. Chem., 267, 23507 (1992), J. Biol. Chem., 267, 2994 (1992)]. Specifically, the reaction was carried out at 37° C. for 16 hours in 20 μl of a reaction solution [150 mmol/l sodium cacodylate (pH 7.2), 10 mmol/l UDP-GlcNAc (manufactured by SIGMA), 480 μmol/l UDP—[^14C]GlcNAc (manufactured by Amersham), 0.4% Triton CF-54, 10 mmol/l MnCl2, […] glycolipid, purified enzyme (G6sec2)]. As the purified enzyme (G6sec2), 10 μl of the enzyme obtained in the above (2) was used. As glycolipids, lactosylceramide, paragloboside, galactosylceramide (Type I) and galactosylceramide (Type II) were used. Paragloboside was obtained from Yasunori Kushi at Tokyo Medical and Dental University. Other glycolipids were purchased from SIGMA. After completion of the reaction, 200 μl of 0.1 mol/l KCl was added and lightly centrifuged to obtain the supernatant. The supernatant was passed through Sep-Pak plus C18 Cartridge (manufactured by Waters) which had been washed once with 10 ml of methanol and equilibrated by washing twice with 10 ml of 0.1 mol/l KCl to adsorb the glycolipid in the supernatant onto the cartridge. After washing the cartridge twice with 10 ml of pure water for HPLC, the adsorbed glycolipid was eluted with 5 ml of methanol. After concentrating the eluate to about 10 μl using a vacuum dryer, the concentrated solution was plotted on a TLC plate (HPTLC plate Silica gel 60: manufactured by MERCK) and developed using a developing solvent comprising a composition of chloroform:methanol:water (containing 0.2% CaCl2)=65:35:8. After the development was carried out to a position 5 mm from the upper end of the TLC plate, the plate was dried and then the radioactivity incorporated into the glycolipid was measured using Bio Image Analyzer BAS 2000 (manufactured by Fuji Photo Film).

Row | Relative activity (%) (G6sec2 [1]) | Relative activity (%) Test 2 G6sec2 (G6sec2 [2]) | Relative activity (%) Test 1 G6sec1 (G6sec1) | Relative activity (%) Test 1 G6sec2 (G6sec2 [2]) | Compound | other results
1 |  | 10.0% | 13.2% | 21.5% | Galβ1-4GlcNAcβ1-3Galβ1-4GlcNAcβ1-3Galβ1-4GlcNAcβ1-3Galβ1-4GlcNAc [4LN] | 
2 |  | 79.2% | 92.9% | 95.8% | CC(=O)N[C@H]1[C@H](O[C@H]2[C@@H](O)[C@@H](CO)O[C@@H](O[C@H]3[C@H](O)[C@@H](NC(C)=O)[C@H](O[C@H]4[C@@H](O)[C@@H](CO)O[C@@H](O[C@H]5[C@H](O)[C@@H](NC(C)=O)C(O)O[C@@H]5CO)[C@@H]4O)O[C@@H]3CO)[C@@H]2O)O[C@H](CO)[C@@H](O[C@@H]2O[C@H](CO)[C@H](O)[C@H](O)[C@H]2O)[C@@H]1O (stereo partly shown) [3LN, Galβ1-4GlcNAcβ1-3Galβ1-4GlcNAcβ1-3Galβ1-4GlcNAc] | 
3 |  | 12.3% | 9.3% | 11.5% | Galβ1-4GlcNAcβ1-3Galβ1-4GlcNAcβ-3Galβ1-4GlcNAcβ1-3Galβ1-4GlcNAcβ1-3Galβ1-4GlcNAc [5LN] | 

Second part, the compound before the results:

Row | Compound | Relative activity (%) (G6sec2 [1]) | Relative activity (%) Test 2 G6sec2 (G6sec2 [2]) | Relative activity (%) Test 1 G6sec1 (G6sec1) | Relative activity (%) Test 1 G6sec2 (G6sec2 [2]) | other results
4 | CC(=O)N[C@H]1[C@H](O[C@H]2[C@@H](O)[C@@H](CO)O[C@@H](O[C@H]3[C@H](O)[C@@H](O)C(O)O[C@@H]3CO)[C@@H]2O)O[C@H](CO)[C@@H](O)[C@@H]1O[C@@H]1O[C@H](CO)[C@H](O)[C@H](O)[C@H]1O (stereo partly shown) [LNT, lacto-N-tetraose] | 5.5% |  |  |  | 
5 | lacto-N-fucopentaose V [LNFP-V] | 4.9% |  |  |  | 
6 | lacto-N-fucopentaose III [LNFP-III] | 4.9% |  |  |  | 
7 | Galβ1-4(SO3-6)GlcNAcβ1-3Galβ1-4(SO3-6)GlcNAc [L2L2] |  | 5.9% |  |  | 
8 | CC(=O)N[C@H]1[C@H](O[C@H]2[C@@H](O)[C@@H](CO)O[C@@H](O[C@@H]([C@H](O)[C@@H](O)C=O)[C@H](O)CO)[C@@H]2O)O[C@H](CO)[C@@H](O[C@@H]2O[C@@H](C)[C@@H](O)[C@@H](O)[C@@H]2O)[C@@H]1O[C@@H]1O[C@H](CO)[C@H](O)[C@H](O)[C@H]1O [LNFP-II, lacto-N-fucopentaose II] | <0.05% |  |  |  | 
9 | CC(=O)N[C@H]1[C@H](O[C@H]2[C@@H](O)[C@@H](CO)O[C@@H](O[C@@H]([C@H](O[C@@H]3O[C@@H](C)[C@@H](O)[C@@H](O)[C@@H]3O)[C@@H](O)C=O)[C@H](O)CO)[C@@H]2O)O[C@H](CO)[C@@H](O[C@@H]2O[C@@H](C)[C@@H](O)[C@@H](O)[C@@H]2O)[C@@H]1O[C@@H]1O[C@H](CO)[C@H](O)[C@H](O)[C@H]1O [LNDFH-II, lacto-N-difucohexaose II] | <0.05% |  |  |  | 
10 | galactosylceramide (Type II) |  |  |  |  | β1,3-N-acetylglucosaminyltransferase activity for the glycolipid (G6sec2 [3]): did not show activity
